From ChEMBL document CHEMBL3885881, “DrugMatrix”

Species: Rattus norvegicus
Assay: DrugMatrix - Regimen: Daily Repeat
Type: toxicity, organism-based, Sprague-Dawley
Set-up: regimen Daily Repeat, gender Male, age 6-8 weeks
Settings: in vivo, po, route oral GAVAGE, vehicle .5 % CMC; for ABSOLUTE BASOPHIL / ABSOLUTE EOSINOPHIL / ABSOLUTE LYMPHOCYTE / ABSOLUTE MONOCYTE / ABSOLUTE SEGMENTED NEUTROPHIL / BASOPHIL / EOSINOPHIL / ERYTHROCYTE COUNT / HEMATOCRIT / HEMOGLOBIN / LEUKOCYTE COUNT / LYMPHOCYTE / MEAN CORPUSCULAR HEMOGLOBIN / MEAN CORPUSCULAR HEMOGLOBIN CONCENTRATION / MEAN CORPUSCULAR VOLUME / MONOCYTE / NEUTROPHIL / NUCLEATED RED BLOOD CELLS / PLATELET COUNT: tissue Blood; for ALANINE AMINOTRANSFERASE / ALBUMIN / ALKALINE PHOSPHATASE / ASPARTATE AMINOTRANSFERASE / BLOOD UREA NITROGEN / CARBON DIOXIDE / CHLORIDE / CHOLESTEROL / CREATINE PHOSPHOKINASE / CREATININE / GLUCOSE / LACTATE DEHYDROGENASE / LIPASE / PHOSPHORUS / POTASSIUM / SODIUM / TOTAL BILIRUBIN / TOTAL PROTEIN / URIC ACID: tissue Plasma
[1] = 30 mg/kg, 72 h, dose level Low, time 3 day
[2] = 30 mg/kg, 120 h, dose level Low, time 5 day
[3] = 600 mg/kg, 72 h, dose level High, time 3 day
[4] = 600 mg/kg, 120 h, dose level High, time 5 day

With `Cc1c(OCC(F)(F)F)ccnc1C[S+]([O-])c1nc2ccccc2[nH]1` (configuration not stated) [LANSOPRAZOLE] the “ABSOLUTE BASOPHIL” value [1] was 0 CELLS/uL, the “ABSOLUTE EOSINOPHIL” value [1] was 38 CELLS/uL and the “ABSOLUTE LYMPHOCYTE” value [1] was 11302.33 CELLS/uL. The “ABSOLUTE MONOCYTE” value [1] was 38 CELLS/uL, the “ABSOLUTE SEGMENTED NEUTROPHIL” value [1] was 588.33 CELLS/uL and the BASOPHIL [1] was 0%. For the same compound, the EOSINOPHIL [1] was 0.33%, the “ERYTHROCYTE COUNT” value [1] was 5.49 x10E6/uL and the HEMATOCRIT [1] was 34.33%. For the same compound, the HEMOGLOBIN [1] was 12.9 G/DL, the “LEUKOCYTE COUNT” value [1] was 11.97 x10E3/uL and the LYMPHOCYTE [1] was 94.33%. The “MEAN CORPUSCULAR HEMOGLOBIN” value [1] was 23.47 pg, the “MEAN CORPUSCULAR HEMOGLOBIN CONCENTRATION” value [1] was 37.53 G/DL and the “MEAN CORPUSCULAR VOLUME” value [1] was 62.53 fL. For the same compound, the MONOCYTE [1] was 0.33%, the NEUTROPHIL [1] was 5% and the “NUCLEATED RED BLOOD CELLS” value [1] was 0 /100WBC. The “PLATELET COUNT” value [1] was 1374 x10E3/uL, the “ALANINE AMINOTRANSFERASE” value [1] was 48.67 u/L and the ALBUMIN [1] was 4.03 G/DL. For the same compound, the “ALKALINE PHOSPHATASE” value [1] was 333 u/L, the “ASPARTATE AMINOTRANSFERASE” value [1] was 84.33 u/L and the “BLOOD UREA NITROGEN” value [1] was 13.67 mg/dL. For the same compound, the “CARBON DIOXIDE” value [1] was 25.33 mmol/L, the CHLORIDE [1] was 103 MEQ/L and the CHOLESTEROL [1] was 81.33 mg/dL. For the same compound, the “CREATINE PHOSPHOKINASE” value [1] was 302.33 u/L, the CREATININE [1] was 0.28 mg/dL and the GLUCOSE [1] was 162 mg/dL. The “LACTATE DEHYDROGENASE” value [1] was 455.33 u/L, the LIPASE [1] was 12 u/L and the PHOSPHORUS [1] was 14.17 mg/dL. For the same compound, the POTASSIUM [1] was 6.71 MEQ/L, the SODIUM [1] was 146.4 MEQ/L and the “TOTAL BILIRUBIN” value [1] was 0.17 mg/dL. For the same compound, the “TOTAL PROTEIN” value [1] was 5.57 G/DL, the “URIC ACID” value [1] was 1.93 mg/dL and the “ABSOLUTE BASOPHIL” value [2] was 0 CELLS/uL. For the same compound, the “ABSOLUTE EOSINOPHIL” value [2] was 0 CELLS/uL, the “ABSOLUTE LYMPHOCYTE” value [2] was 12566 CELLS/uL and the “ABSOLUTE MONOCYTE” value [2] was 465.33 CELLS/uL. For the same compound, the “ABSOLUTE SEGMENTED NEUTROPHIL” value [2] was 1302 CELLS/uL, the BASOPHIL [2] was 0% and the EOSINOPHIL [2] was 0%. For the same compound, the “ERYTHROCYTE COUNT” value [2] was 5.54 x10E6/uL, the HEMATOCRIT [2] was 36.83% and the HEMOGLOBIN [2] was 13.67 G/DL. The “LEUKOCYTE COUNT” value [2] was 14.33 x10E3/uL, the LYMPHOCYTE [2] was 87.67% and the “MEAN CORPUSCULAR HEMOGLOBIN” value [2] was 24.73 pg. For the same compound, the “MEAN CORPUSCULAR HEMOGLOBIN CONCENTRATION” value [2] was 37.17 G/DL, the “MEAN CORPUSCULAR VOLUME” value [2] was 66.5 fL and the MONOCYTE [2] was 3.33%. The NEUTROPHIL [2] was 9%, the “NUCLEATED RED BLOOD CELLS” value [2] was 0 /100WBC and the “PLATELET COUNT” value [2] was 1375.67 x10E3/uL. The “ALANINE AMINOTRANSFERASE” value [2] was 52.33 u/L, the ALBUMIN [2] was 4.3 G/DL and the “ALKALINE PHOSPHATASE” value [2] was 288.67 u/L. The “ASPARTATE AMINOTRANSFERASE” value [2] was 81 u/L, the “BLOOD UREA NITROGEN” value [2] was 16.33 mg/dL and the “CARBON DIOXIDE” value [2] was 22.33 mmol/L. The CHLORIDE [2] was 103.67 MEQ/L, the CHOLESTEROL [2] was 82 mg/dL and the “CREATINE PHOSPHOKINASE” value [2] was 222.67 u/L. For the same compound, the CREATININE [2] was 0.33 mg/dL, the GLUCOSE [2] was 147 mg/dL and the “LACTATE DEHYDROGENASE” value [2] was 157.67 u/L. The LIPASE [2] was 13 u/L, the PHOSPHORUS [2] was 12.33 mg/dL and the POTASSIUM [2] was 7.1 MEQ/L. The SODIUM [2] was 147.6 MEQ/L, the “TOTAL BILIRUBIN” value [2] was 0.2 mg/dL and the “TOTAL PROTEIN” value [2] was 6.07 G/DL. The “URIC ACID” value [2] was 1.6 mg/dL, the “ABSOLUTE BASOPHIL” value [3] was 0 CELLS/uL and the “ABSOLUTE EOSINOPHIL” value [3] was 0 CELLS/uL. The “ABSOLUTE LYMPHOCYTE” value [3] was 13053.67 CELLS/uL, the “ABSOLUTE MONOCYTE” value [3] was 222.67 CELLS/uL and the “ABSOLUTE SEGMENTED NEUTROPHIL” value [3] was 690.33 CELLS/uL. The BASOPHIL [3] was 0%, the EOSINOPHIL [3] was 0% and the “ERYTHROCYTE COUNT” value [3] was 5.81 x10E6/uL. For the same compound, the HEMATOCRIT [3] was 37.37%, the HEMOGLOBIN [3] was 13.57 G/DL and the “LEUKOCYTE COUNT” value [3] was 13.97 x10E3/uL. For the same compound, the LYMPHOCYTE [3] was 93.67%, the “MEAN CORPUSCULAR HEMOGLOBIN” value [3] was 23.33 pg and the “MEAN CORPUSCULAR HEMOGLOBIN CONCENTRATION” value [3] was 36.3 G/DL. The “MEAN CORPUSCULAR VOLUME” value [3] was 64.3 fL, the MONOCYTE [3] was 1.33% and the NEUTROPHIL [3] was 5%. For the same compound, the “NUCLEATED RED BLOOD CELLS” value [3] was 0.33 /100WBC, the “PLATELET COUNT” value [3] was 1408 x10E3/uL and the “ALANINE AMINOTRANSFERASE” value [3] was 39 u/L. For the same compound, the ALBUMIN [3] was 4.1 G/DL, the “ALKALINE PHOSPHATASE” value [3] was 387.33 u/L and the “ASPARTATE AMINOTRANSFERASE” value [3] was 76.67 u/L. For the same compound, the “BLOOD UREA NITROGEN” value [3] was 16.33 mg/dL, the “CARBON DIOXIDE” value [3] was 28 mmol/L and the CHLORIDE [3] was 104.67 MEQ/L. For the same compound, the CHOLESTEROL [3] was 55.33 mg/dL, the “CREATINE PHOSPHOKINASE” value [3] was 222 u/L and the CREATININE [3] was 0.18 mg/dL. The GLUCOSE [3] was 159 mg/dL, the “LACTATE DEHYDROGENASE” value [3] was 91.33 u/L and the LIPASE [3] was 9.67 u/L. For the same compound, the PHOSPHORUS [3] was 12.23 mg/dL, the POTASSIUM [3] was 6.7 MEQ/L and the SODIUM [3] was 147.6 MEQ/L. The “TOTAL BILIRUBIN” value [3] was 0.13 mg/dL, the “TOTAL PROTEIN” value [3] was 5.53 G/DL and the “URIC ACID” value [3] was 1.8 mg/dL. For the same compound, the “ABSOLUTE BASOPHIL” value [4] was 0 CELLS/uL, the “ABSOLUTE EOSINOPHIL” value [4] was 0 CELLS/uL and the “ABSOLUTE LYMPHOCYTE” value [4] was 15467 CELLS/uL. For the same compound, the “ABSOLUTE MONOCYTE” value [4] was 599 CELLS/uL, the “ABSOLUTE SEGMENTED NEUTROPHIL” value [4] was 1467.33 CELLS/uL and the BASOPHIL [4] was 0%. The EOSINOPHIL [4] was 0%, the “ERYTHROCYTE COUNT” value [4] was 5.82 x10E6/uL and the HEMATOCRIT [4] was 35.9%. For the same compound, the HEMOGLOBIN [4] was 13.57 G/DL, the “LEUKOCYTE COUNT” value [4] was 17.53 x10E3/uL and the LYMPHOCYTE [4] was 87.67%. The “MEAN CORPUSCULAR HEMOGLOBIN” value [4] was 23.33 pg, the “MEAN CORPUSCULAR HEMOGLOBIN CONCENTRATION” value [4] was 37.8 G/DL and the “MEAN CORPUSCULAR VOLUME” value [4] was 61.7 fL. For the same compound, the MONOCYTE [4] was 3.33%, the NEUTROPHIL [4] was 9% and the “NUCLEATED RED BLOOD CELLS” value [4] was 0.33 /100WBC. For the same compound, the “PLATELET COUNT” value [4] was 1179.67 x10E3/uL, the “ALANINE AMINOTRANSFERASE” value [4] was 36 u/L and the ALBUMIN [4] was 3.93 G/DL. The “ALKALINE PHOSPHATASE” value [4] was 272.33 u/L, the “ASPARTATE AMINOTRANSFERASE” value [4] was 83.33 u/L and the “BLOOD UREA NITROGEN” value [4] was 16.67 mg/dL. The “CARBON DIOXIDE” value [4] was 28.33 mmol/L, the CHLORIDE [4] was 106 MEQ/L and the CHOLESTEROL [4] was 51.33 mg/dL. For the same compound, the “CREATINE PHOSPHOKINASE” value [4] was 144.33 u/L, the CREATININE [4] was 0.17 mg/dL and the GLUCOSE [4] was 138.67 mg/dL. For the same compound, the “LACTATE DEHYDROGENASE” value [4] was 71 u/L, the LIPASE [4] was 10.67 u/L and the PHOSPHORUS [4] was 10.43 mg/dL. The POTASSIUM [4] was 6.81 MEQ/L, the SODIUM [4] was 148.63 MEQ/L and the “TOTAL BILIRUBIN” value [4] was 0.17 mg/dL. The “TOTAL PROTEIN” value [4] was 5.73 G/DL and the “URIC ACID” value [4] was 1.27 mg/dL.
